From US6331565A, “Dicaffeoylquinic acid for treating hepatitis B and the diseases associated with retrovirus, and the new caffeoylquinic acid derivatives” (Institute of Radiation Medicine Academy of Military Medical …, priority 1996, dated 2001)
Read-outs that look alike come from different tables or passages of the source.

Legend:
HIV-1 = test: microbe, parasite or virus in culture; settings: Human immunodeficiency virus 1, MT4, in Homo sapiens, 168 h
Experimental: (§1) A human T-cell leukemia cell line. MT4 cells, was used in this study. It was maintained in RPMI-1640 medium supplemented with 10% FCS. 100 U/ml of penicillin, and 100 μg/ml of streptomycin at 37° C. in a humidified atmosphere of 5% CO2. Cell cultures were split into fresh medium every 4 days.
HIV-1 virus was propagated in MT4 cells. The cell-free supernatants of HIV-1 infected MT4 cell culture were used as virus stocks and frozen at -80° C. until used. The 50% tissue culture infected dose (TCID50) of the cell-free virus stock was determined by end-point titration with MT4 cells in 96-well microdilution plates.
(§2) After 4 h, 100 μl of solvent (10% Triton X-100 and 0.4% HCl isopropanol)was added to cultures to solubilizes formazan. After an overnight incubation, the absorbency of each well was measured using a microplate reader (Bio-Rad, model 450) at 560 nm.
MT4 cells in culture were counted by trypan blue exclusion method. The MT4 cells suspended in a small volume of RPMI-1640 medium without FCS and infected with HIV-1 at 200 TCID50 viruses per 10^6 cells. The mixture of MT4 cells and virus was subsequently incubated at 37° C. in a humidified atmosphere of 5% CO2 for 1 hr to allow virus to adsorbed to cells. Unabsorbed viruses were then removed by washing one with […] of the fresh medium and centrifuged at 1000 rpm for ten minutes. The cells were suspended in the medium and distributed into 12-well microculture plates (10^6 cells/3 ml/well). […] After 4-day incubation at 37° C. in a humidified atmosphere containing 5% CO2 the medium was aspirated and the fresh medium containing the same concentration of drug was added.
After 7-day incubation the viable cells was evaluated by MTT method as described above.

DHBV = test: anti-DHBV test in ducks (serum DHBV DNA dot blot); type: in vivo, DHBV in Peking (Beijing) ducks
Experimental: One-day-old ducklings were infected with a 200 μl intravenous injection of DHBV-positive serum containing 10^11 viral genome equivalents per milliliter. Treatment began when ducklings were 7 days old. A total 89 seven-day-old viraemic ducks were distributed at random into five groups. […] Post-treatment follow-up was carried over a period of 5 days. Blood samples were obtained repectively from the leg vein of all ducks and stored at -70° C. after serum separation, prior to treatment, weekly during the treatment, and for 5 days after cessation of treatment. They were screened for presence of DHBV DNA by dot blot hybridization.
DHBV DNA in serum was analyzed by molecular hybridization using full length DHBV DNA clones in PB325. The DHBV DNA insert was purified by agarose gel electrophoresis after digestion with EcoRI. The DHBV DNA was radiolabeled with α^32 P-dCTP random oligopriming with Klenow fragment. Dot blot hybridization was carried out by the method of Scotto et al. Briefly, an aliquot (200 μl) serum was spotted onto a nylon membrane (Hybond-N, Amersham International, England) in dot blot manifold and denatured with 0.5 M NaOH--NaCl at room temperature for 30 min. Each spotted sample was neutralized in 1M Tris.HCl-1.5M NaCl (pH8.0). The DNA on the membrane was fixed by heating at 80° C. for 2 h, and prehybridization at 37° C. overnight in 50% formamide, 5×Denhardt's, 6×SSC,[…], 0.5% SDS and 10 mg/ml of calf thymus DNA. Hybridization was initiated by adding DHBV [^32 P] DNA probes at 10^6 cpm/ml at the same prehybridization conditions overnight. The membrane was washed in 3×SSC-0.1% SDS at room temperature, 42° C. and 65° C. for 10 min respectively. After hybridization the membranes were air-dried and exposed for periods of up to 14 days at -70° C. with Kodak film with an enhancer screen. The amount of viral DNA were assayed by both densitometry and image analysis of autoradiographic membranes.

HBV DNA polymerase = target: T1, HBV DNA polymerase (Hepatitis B virus genotype D subtype ayw, UniProt P03156); test: HBV DNA polymerase assay; type: biochemical
T1 construct: HBV DNA polymerase in viral particles; host or cells: viral particles
Experimental: Assay was performed as described by Hantz (Antiviral Res 4(1984) 187-199) with minor modification. The Reaction mixture consisted of HBV DNA polymerase in viral particles in 200 mmol.l^-1 of Tris-HCl pH 7.6, 200 mmol.l^-1 of NH4 Cl. 50 mmol.l^-1 of MgCl2, 10 mmol.l^-1 of 2-mercaptoethanol, 2% Nonidet P-40 and 300 μmol.l^-1 concentrations of deoxynucleotide triphosphates except for [^3 H]dTTP, which was included in the assay at 20 μci.ml^-1. […] The mixtures were incubated at 37° C. for 4 h prior to spotting on Whatman No.3 filter paper which was washed 4 times with cold 5% trichloroacitic acid, then with ethanol. The HBV DNA polymerase activity as measure of the incorperation of the radionucleotide into the viral DNA was counted in a Recbeta (LKB)scintilation counter.

MT4 cells = test: Cytotoxicity in uninfected MT4 cells (MTT); type: cell-based, human; settings: 1000 μg.ml^-1, MTT
Experimental: as §1, §2

T1 sequence (P03156 whole entry): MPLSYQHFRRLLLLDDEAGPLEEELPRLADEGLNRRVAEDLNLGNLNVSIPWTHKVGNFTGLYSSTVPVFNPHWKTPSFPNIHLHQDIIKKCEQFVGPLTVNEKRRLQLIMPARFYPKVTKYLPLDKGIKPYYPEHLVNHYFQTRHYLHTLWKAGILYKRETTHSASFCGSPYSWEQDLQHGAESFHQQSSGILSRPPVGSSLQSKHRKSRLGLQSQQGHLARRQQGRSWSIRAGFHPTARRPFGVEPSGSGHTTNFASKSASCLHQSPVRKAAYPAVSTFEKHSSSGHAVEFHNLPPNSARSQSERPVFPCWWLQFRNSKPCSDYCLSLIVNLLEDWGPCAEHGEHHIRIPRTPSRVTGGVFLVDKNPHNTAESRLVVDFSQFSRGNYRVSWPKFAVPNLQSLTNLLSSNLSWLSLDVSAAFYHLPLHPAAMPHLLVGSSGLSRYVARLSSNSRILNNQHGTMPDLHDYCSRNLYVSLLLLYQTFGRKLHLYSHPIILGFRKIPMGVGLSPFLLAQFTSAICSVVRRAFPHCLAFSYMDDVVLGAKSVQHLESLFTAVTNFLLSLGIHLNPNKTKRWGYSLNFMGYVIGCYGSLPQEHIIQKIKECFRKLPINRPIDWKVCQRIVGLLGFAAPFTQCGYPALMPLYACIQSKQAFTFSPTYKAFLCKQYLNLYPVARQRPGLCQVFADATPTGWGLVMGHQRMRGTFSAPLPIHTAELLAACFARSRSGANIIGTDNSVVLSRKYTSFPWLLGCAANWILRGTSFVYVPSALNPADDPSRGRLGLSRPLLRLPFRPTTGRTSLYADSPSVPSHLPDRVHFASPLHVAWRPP

O=C(/C=C/c1ccc(O)c(O)c1)OC1CC(OC(=O)/C=C/c2ccc(O)c(O)c2)(C(=O)O)CC(O)C1O (stereo not drawn) [Compound A, 1,5-di-O-caffeoylquinic acid]
inhibition at 1.56 µg/mL (HIV-1; read-out: Inhibit rate (%), 1.56 μg/ml, 1000 TCID50 (first column pair), 7 days): 7.2%
inhibition at 1.56 µg/mL (HIV-1; read-out: Inhibit rate (%), 1.56 μg/ml, 1000 TCID50 (second column pair), 7 days): 8.1%
inhibition at 3.12 µg/mL (HIV-1; read-out: Inhibit rate (%), 3.12 μg/ml, 1000 TCID50 (first column pair), 7 days): 21.1%
inhibition at 3.12 µg/mL (HIV-1; read-out: Inhibit rate (%), 3.12 μg/ml, 1000 TCID50 (second column pair), 7 days): 19%
inhibition at 6.25 µg/mL (HIV-1; read-out: Inhibit rate (%), 6.25 μg/ml, 1000 TCID50 (first column pair), 7 days): 40%
inhibition at 6.25 µg/mL (HIV-1; read-out: Inhibit rate (%), 6.25 μg/ml, 1000 TCID50 (second column pair), 7 days): 44.3%
inhibition at 12.5 µg/mL (HIV-1; read-out: Inhibit rate (%), 12.5 μg/ml, 1000 TCID50 (first column pair), 7 days): 55%
inhibition at 12.5 µg/mL (HIV-1; read-out: Inhibit rate (%), 12.5 μg/ml, 1000 TCID50 (second column pair), 7 days): 56.5%
inhibition at 25 µg/mL (HIV-1; read-out: Inhibit rate (%), 25 μg/ml, 1000 TCID50 (first column pair), 7 days): 69.9%
inhibition at 25 µg/mL (HIV-1; read-out: Inhibit rate (%), 25 μg/ml, 1000 TCID50 (second column pair), 7 days): 63.7%
inhibition at 50 µg/mL (HIV-1; read-out: Inhibit rate (%), 50 μg/ml, 1000 TCID50 (first column pair), 7 days): 74.8%
inhibition at 50 µg/mL (HIV-1; read-out: Inhibit rate (%), 50 μg/ml, 1000 TCID50 (second column pair), 7 days): 60.6%
inhibition at 100 µg/mL (HIV-1; read-out: Inhibit rate (%), 100 μg/ml, 1000 TCID50 (first column pair), 7 days): 61.5%
inhibition at 100 µg/mL (HIV-1; read-out: Inhibit rate (%), 100 μg/ml, 1000 TCID50 (second column pair), 7 days): 57.7%
inhibition of DHBV DNA (DHBV; 50 mg.kg of body weight^-1.day^-1): strange inhibition of DHBV DNA
inhibition of viraemia (DHBV; 50 mg.kg of body weight^-1.day^-1, day 14): 87%
IC50 (HBV DNA polymerase): 59.3 µM
inhibitory effect on HBV DNAp (HBV DNA polymerase): significant dose-dependent inhibitory effect
cpm (HBV DNA polymerase; 1 μg/ml): 9856 ± 201 cpm
cpm (HBV DNA polymerase; 10 μg/ml): 7990 ± 79 cpm
cpm (HBV DNA polymerase; 100 μg/ml): 3522 ± 51 cpm
cpm (HBV DNA polymerase; 1000 μg/ml): 1983 ± 159 cpm
inhibition at 1 µg/mL (HBV DNA polymerase; read-out: Inhibitory rate (%)): 11.2 ± 1.9%
inhibition at 10 µg/mL (HBV DNA polymerase; read-out: Inhibitory rate (%)): 30.3 ± 0.8%
inhibition at 100 µg/mL (HBV DNA polymerase; read-out: Inhibitory rate (%)): 68.4 ± 0.5%
inhibition at 1000 µg/mL (HBV DNA polymerase; read-out: Inhibitory rate (%)): 82.3 ± 1.5%
cytotoxicity to MT4 cells (MT4 cells): markedly cytotoxic
